Measurements reported in patent US20250376469A1, “INDOLIZINE DERIVATIVES FOR TREATING TRPM3-MEDIATED DISORDERS” (Katholieke Universiteit Leuven, priority 2022, published 2025).

Target: T1, mouse TRPM3α2 (mTRPM3) ion channel (Mus musculus, UniProt J9SQF3)
T1 construct: expressed in transfected cells; host or cells: flip-in HEK293
Assay: TRPM3 ion channel driven Ca2+ uptake (Fluo-4 AM assay, pregnenolone sulfate stimulated)
Assay type: cell-based
Settings: TRPM3 overexpressing flip-in HEK293 cells, channel opened with pregnenolone sulfate (PS) 50 μM, 2.4 mM Ca2+
Protocol: In order to monitor the inhibition of the mouse TRPM3α2 (mTRPM3) ion channel by the compounds of the invention, a cellular system making use of an mTRPM3alpha2 or hTRPM3 overexpressing cell line (flip-in HEK293) was used. The TRPM3 channel was stimulated/opened with Pregnenolone sulfate (PS) (50 μM) which results in Ca^2+ influx.
For mTRPM3, the intracellular Ca^2+ was measured with a Calcium responsive dye, Fluor-4 AM ester (Invitrogen). Cells were cultured until a confluence of 80-90%, washed with Versene (Invitrogen) and detached from the surface by a short incubation with 0.05% Trypsin (Invitrogen). The trypsination process was stopped by the addition of complete cell culture medium (DMEM, glutamax, 10% FCS, NEAA, Pen-Strep). Cells were collected and resuspended in Krebs buffer without Calcium at RT.
Prior the cell seeding (±2000 cells/well into a black, 384 well plate (Greiner)) the diluted compound was added in the assay plate, together with the PS dissolved in Krebs buffer containing Calcium. […] Directly after cell addition the plates were read on an Envision fluorescence reader (Perkin Elmer) by an Excitation of 485 nm and emission at 535 nm.
Channel inhibition was calculated compared to a non-PS stimulated control versus a condition stimulated with PS (50 μM) with vehicle. The ability of a the compounds of the invention to inhibit this activity was determined as: Percentage inhibition=[1−((RFU determined for sample with test compound present−RFU determined for sample with positive control inhibitor) divided by (RFU determined in the presence of vehicle−RFU determined for sample with positive control inhibitor))]*100.
The activities of the Example compounds […] tested are depicted in the table below. The activity ranges A, B and C refer to IC50 values in the Fluo-4 AM assay as follows: […]

T1 sequence (J9SQF3 1-1709 isoform J9SQF3-12): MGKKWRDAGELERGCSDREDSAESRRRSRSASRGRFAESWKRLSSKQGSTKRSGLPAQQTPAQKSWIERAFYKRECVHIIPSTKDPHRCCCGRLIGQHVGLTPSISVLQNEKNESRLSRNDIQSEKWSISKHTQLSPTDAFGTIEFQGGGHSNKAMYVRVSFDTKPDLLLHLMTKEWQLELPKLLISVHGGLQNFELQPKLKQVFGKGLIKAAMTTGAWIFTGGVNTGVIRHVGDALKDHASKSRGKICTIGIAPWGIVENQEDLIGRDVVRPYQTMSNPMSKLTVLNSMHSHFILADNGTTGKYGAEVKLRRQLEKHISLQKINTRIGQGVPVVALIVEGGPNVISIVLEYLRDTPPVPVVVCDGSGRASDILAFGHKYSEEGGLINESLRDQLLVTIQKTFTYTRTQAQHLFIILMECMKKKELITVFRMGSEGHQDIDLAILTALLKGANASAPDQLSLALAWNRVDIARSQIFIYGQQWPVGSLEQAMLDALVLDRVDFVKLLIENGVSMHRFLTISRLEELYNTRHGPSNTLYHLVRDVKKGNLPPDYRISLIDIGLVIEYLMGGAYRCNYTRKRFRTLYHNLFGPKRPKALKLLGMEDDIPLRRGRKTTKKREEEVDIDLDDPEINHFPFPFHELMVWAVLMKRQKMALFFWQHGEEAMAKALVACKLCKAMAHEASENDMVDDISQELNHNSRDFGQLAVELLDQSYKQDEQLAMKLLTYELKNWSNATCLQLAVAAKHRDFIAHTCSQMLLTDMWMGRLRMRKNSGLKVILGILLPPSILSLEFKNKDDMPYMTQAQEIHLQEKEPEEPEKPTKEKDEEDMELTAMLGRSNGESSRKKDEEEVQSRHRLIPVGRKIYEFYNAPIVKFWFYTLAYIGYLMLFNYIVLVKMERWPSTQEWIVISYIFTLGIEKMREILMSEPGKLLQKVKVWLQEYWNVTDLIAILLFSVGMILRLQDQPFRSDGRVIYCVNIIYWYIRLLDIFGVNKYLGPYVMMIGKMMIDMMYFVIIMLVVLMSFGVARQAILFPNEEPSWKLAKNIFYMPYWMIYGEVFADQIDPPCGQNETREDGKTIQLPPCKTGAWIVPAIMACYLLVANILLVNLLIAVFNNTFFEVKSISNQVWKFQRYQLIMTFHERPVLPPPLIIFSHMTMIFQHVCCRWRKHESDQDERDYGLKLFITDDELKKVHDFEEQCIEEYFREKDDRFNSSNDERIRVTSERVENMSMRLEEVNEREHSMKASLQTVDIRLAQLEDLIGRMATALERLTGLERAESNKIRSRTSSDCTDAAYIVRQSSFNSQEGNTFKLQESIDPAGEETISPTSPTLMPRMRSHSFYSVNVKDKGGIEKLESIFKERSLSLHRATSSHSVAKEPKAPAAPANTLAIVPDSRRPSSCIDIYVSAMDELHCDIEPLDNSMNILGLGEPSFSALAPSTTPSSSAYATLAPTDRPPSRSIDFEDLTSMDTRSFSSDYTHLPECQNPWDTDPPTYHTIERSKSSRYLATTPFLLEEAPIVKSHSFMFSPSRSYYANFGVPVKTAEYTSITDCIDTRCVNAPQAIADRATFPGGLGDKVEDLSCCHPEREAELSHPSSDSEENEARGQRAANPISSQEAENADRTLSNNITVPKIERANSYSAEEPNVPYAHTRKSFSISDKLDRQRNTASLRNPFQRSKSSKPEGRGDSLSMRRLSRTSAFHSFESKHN

Row | IC50 [nM] | Structure (SMILES)
1 | 1000 to 20000 | Cc1cc2ccc(OCc3c(F)cnn3C)cn2c1C(=O)NC(CO)CC(F)(F)F (single isomer, unassigned) [Cpd 045 - En1]
2 | > 20000 | Cc1cc2ccc(OCc3c(F)cnn3C)cn2c1C(=O)NC(CO)CC(F)(F)F (single isomer, unassigned) [Cpd 045 - En2]
3 | < 1000 | Cc1cc2ccc(OCc3cnccn3)cn2c1C(=O)NC1(CO)CCNC1=O (single isomer, unassigned) [Cpd 046 - En1]
4 | > 20000 | Cc1cc2ccc(OCc3cnccn3)cn2c1C(=O)NC1(CO)CCNC1=O (single isomer, unassigned) [Cpd 046 - En2]
5 | 1000 to 20000 | Cc1cc2ccc(OCc3scnc3C)cn2c1C(=O)NC1(CO)CCOCC1 [Cpd 001, N-[4-(hydroxymethyl)oxan-4-yl]-2-methyl-6-[(4-methyl-1,3-thiazol-5-yl)methoxy]indolizine-3-carboxamide]
6 | < 1000 | Cc1cc2ccc(OCc3ccccc3F)cn2c1C(=O)N[C@@H](C)C(N)=O [Cpd 002, (2S)-2-({6-[(2-fluorophenyl)methoxy]-2-methylindolizin-3-yl}formamido)propanamide]
7 | < 1000 | Cc1cc2ccc(OCc3ccccc3F)cn2c1C(=O)N[C@@H](CO)C(N)=O [Cpd 003, (2S)-2-({6-[(2-fluorophenyl)methoxy]-2-methylindolizin-3-yl}formamido)-3-hydroxypropanamide]
8 | < 1000 | Cc1cc2ccc(OCc3ccccc3F)cn2c1C(=O)NC(C)(CO)CO [Cpd 006, N-(1,3-dihydroxy-2-methylpropan-2-yl)-6-[(2-fluorophenyl)methoxy]-2-methylindolizine-3-carboxamide]
9 | 1000 to 20000 | Cc1cc2ccc(OCc3ccccc3F)cn2c1C(=O)NC1CNCCC1(F)F (centres unmarked) [Cpd 008, N-(4,4-difluoropiperidin-3-yl)-6-[(2-fluorophenyl)methoxy]-2-methylindolizine-3-carboxamide]
10 | < 1000 | Cc1cc2ccc(OCc3ccccn3)cn2c1C(=O)NC(C)(CO)CO [Cpd 015, N-(1,3-dihydroxy-2-methylpropan-2-yl)-2-methyl-6-[(pyridin-2-yl)methoxy]indolizine-3-carboxamide]
11 | < 1000 | Cc1cc2ccc(OCC3CC3)cn2c1C(=O)NC(C)(CO)CO [Cpd 020, 6-(cyclopropylmethoxy)-N-(1,3-dihydroxy-2-methylpropan-2-yl)-2-methylindolizine-3-carboxamide]
12 | 1000 to 20000 | Cc1cc2ccc(OCC(F)F)cn2c1C(=O)NC(C)(CO)CO [Cpd 025, 6-(2,2-difluoroethoxy)-N-(1,3-dihydroxy-2-methylpropan-2-yl)-2-methylindolizine-3-carboxamide]
13 | < 1000 | Cc1ncc(COc2ccc3cc(C)c(C(=O)NC(C)(CO)CO)n3c2)s1 [Cpd 030, N-(1,3-dihydroxy-2-methylpropan-2-yl)-2-methyl-6-[(2-methyl-1,3-thiazol-5-yl)methoxy]indolizine-3-carboxamide]
14 | 1000 to 20000 | Cc1ncc(COc2ccc3cc(C)c(C(=O)NC(C)C(N)=O)n3c2)s1 (centres unmarked) [Cpd 031, 2-({2-methyl-6-[(2-methyl-1,3-thiazol-5-yl)methoxy]indolizin-3-yl}formamido)propanamide]
